From the supplement of paper PMC10307832

Columns and labels:
Assay in all cases: relative viability (nuclei count vs DMSO), 5 days (fraction); higher = more cells survive
[1] = compound: CC1=CC(=NN1)NC2=CC(=NC(=N2)/C=C/C3=CC=CC=C3)N4CCN(CC4)C + Nc1ncn([C@H]2C[C@H](O)[C@@H](CO)O2)c(=O)n1 [Decitabine] (partner 2 µM)
Summary of the method: (§1)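 Lung cancer cell lines in 1536-well plates were dosed by pin tool the day after seeding, either with one drug alone or with a fixed anchor-drug dose plus five library-drug doses (not always all listed) in √10 steps. After 5 days, cells were fixed and their nuclei stained in one step (final 0.05% Triton X-100, 1% formaldehyde, 1 ug/ml Hoechst), then counted on 4× images. Relative viability is the nuclei count in treated wells divided by that in vehicle wells. Values are medians of duplicate plates.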

Bortezomib + Dasatinib = compound: CC(C)C[C@H](NC(=O)[C@H](Cc1ccccc1)NC(=O)c1cnccn1)B(O)O [Bortezomib] + Cc1nc(Nc2ncc(C(=O)Nc3c(C)cccc3Cl)s2)cc(N2CCN(CCO)CC2)n1 [Dasatinib] (partner 0.075 µM)
Summary of the method: as §1

Obatoclax + Olaparib = compound: COC1=CC(c2cc3ccccc3[nH]2)=N/C1=C\c1[nH]c(C)cc1C [Obatoclax] + O=C(c1cc(Cc2n[nH]c(=O)c3ccccc23)ccc1F)N1CCN(C(=O)C2CC2)CC1 [Olaparib] (partner 8 µM)
Summary of the method: as §1

[2] = compound: CC1=CC(=NN1)NC2=CC(=NC(=N2)/C=C/C3=CC=CC=C3)N4CCN(CC4)C + CS(=O)(=O)N1CCN(Cc2cc3nc(-c4cccc5[nH]ncc45)nc(N4CCOCC4)c3s2)CC1 [Pictilisib] (partner 1 µM)
Summary of the method: as §1

Cell Line | relative viability ([1]; first compound 0.08 µM) | relative viability ([1]; first compound 0.253 µM) | relative viability ([1]; first compound 0.8 µM) | relative viability ([1]; first compound 2.53 µM) | relative viability ([1]; first compound 8 µM) | relative viability (Bortezomib + Dasatinib; first compound 0.0002 µM) | relative viability (Bortezomib + Dasatinib; first compound 0.000632 µM) | relative viability (Bortezomib + Dasatinib; first compound 0.002 µM) | relative viability (Bortezomib + Dasatinib; first compound 0.006325 µM) | relative viability (Bortezomib + Dasatinib; first compound 0.02 µM) | relative viability (Obatoclax + Olaparib; first compound 0.01 µM) | relative viability (Obatoclax + Olaparib; first compound 0.03162 µM) | relative viability (Obatoclax + Olaparib; first compound 0.1 µM) | relative viability (Obatoclax + Olaparib; first compound 0.3162 µM) | relative viability (Obatoclax + Olaparib; first compound 1 µM) | relative viability ([2]; first compound 0.08 µM) | relative viability ([2]; first compound 0.253 µM) | relative viability ([2]; first compound 0.8 µM) | relative viability ([2]; first compound 2.53 µM) | relative viability ([2]; first compound 8 µM)
NCI-H2347 | 0.606 | 0.636 | 0.561 | 0.549 | 0.394 | 0.685 | 0.353 | 0.332 | 0.321 | 0.219 | 0.56 | 0.572 | 0.528 | 0.524 | 0.476 | 0.63 | 0.342 | 0.777 | 0.417 | 0.333
NCI-H2405 | 0.758 | 0.618 | 0.687 | 0.615 | 0.171 | 0.18 | 0.188 | 0.288 | 0.16 | 0.144 | 0.911 | 0.981 |  | 0.935 | 0.734 | 0.473 | 0.32 | 0.452 | 0.179 | 0.133
NCI-H3122 | 0.372 | 0.364 | 0.46 | 0.379 | 0.298 | 0.878 | 0.873 | 0.901 | 0.233 | 0.0847 | 0.655 | 0.517 | 0.642 | 0.613 | 0.678 | 0.588 | 0.345 | 0.659 | 0.428 | 0.291
PC-3 [JPC-3] | 0.807 | 0.882 | 0.806 | 0.834 | 0.543 | 0.961 | 0.994 | 0.991 | 0.199 | 0.106 | 1.09 | 1.25 | 1.02 | 1 | 0.514 | 0.763 | 0.721 | 0.706 | 0.648 | 0.579
PC-14 | 0.179 | 0.2 | 0.253 | 0.0601 | 0.0537 | 0.294 | 0.236 | 0.168 | 0.028 | 0.0371 | 0.285 | 0.306 | 0.14 | 0.0684 | 0.081 | 0.651 | 0.635 | 0.56 | 0.199 | 0.0209
RERF-LC-KJ | 0.73 | 0.677 | 0.695 | 0.272 | 0.242 | 0.833 | 0.695 | 0.946 | 0.219 | 0.234 | 0.897 | 0.903 | 0.897 | 0.863 | 0.33 | 0.593 | 0.519 | 0.495 | 0.27 | 0.168
SK-LU-1 | 0.594 | 0.661 | 0.618 | 0.396 | 0.183 | 0.17 | 0.202 | 0.214 | 0.0951 | 0.118 | 0.448 | 0.468 | 0.372 | 0.447 | 0.347 | 0.595 | 0.587 | 0.56 | 0.285 | 0.0825
SK-MES-1 | 0.402 | 0.379 | 0.331 | 0.187 | 0.11 | 0.375 | 0.351 | 0.35 | 0.124 | 0.125 | 0.641 | 0.655 | 0.495 | 0.172 | 0.17 | 0.341 | 0.357 | 0.279 | 0.168 | 0.134
SW 1573 | 0.51 | 0.652 | 0.451 | 0.111 | 0.0605 | 0.488 | 0.867 | 0.24 | 0.0568 | 0.052 | 0.488 | 0.529 | 0.363 | 0.149 | 0.179 | 0.478 | 0.478 | 0.393 | 0.179 | 0.0655
UMC-11 | 0.722 | 0.609 | 0.562 | 0.282 | 0.209 | 0.389 | 0.491 | 0.439 | 0.278 | 0.171 | 0.316 | 0.448 | 0.43 | 0.415 | 0.289 | 0.79 | 0.813 | 0.606 | 0.158 | 0.108
